For one series, the system named is K562. Put plainly: Anticancer activity against human K562 cells assessed as reduction in cell viability for 72 hrs by MTT assay. It counts as functional, cell-based. The following applies: K562, 72 h. For orientation: Tetrazolium assays rely on reduction of a dye to a coloured formazan, in cell work by metabolically active cells.
The nature of series [1]: Cytotoxicity against human skin fibroblast cells assessed as reduction in cell viability incubated for 72 hrs by MTT assay. It counts as toxicity, cell-based.
Series [2] in a line: Cytotoxicity against human skin fibroblast cells incubated for 24 hrs by MTT assay. It counts as toxicity, cell-based.
The subject of series [3] is MCF7. Put plainly: Anticancer activity against human MCF7 cells assessed as reduction in cell viability for 72 hrs by MTT assay. Format: functional, cell-based. To be noted: MCF7, 72 h.
Another series concerns HCT-15. Kind of series: Anticancer activity against human HCT-15 cells assessed as reduction in cell viability for 72 hrs by MTT assay. Format: functional, cell-based. To be noted: HCT-15, 72 h.
The subject of another series is SBcl2. Put plainly: Antitumor activity against human SBcl2 cells assessed as reduction in cell viability incubated for 72 hrs by XTT assay. It counts as functional, cell-based. The following applies: SBcl2, 72 h.
The nature of series [4]: Antitumor activity against human WM9 cells assessed as reduction in cell viability incubated for 72 hrs by XTT assay. It counts as functional, cell-based. The following applies: WM9, 72 h.
A further series has as its system WM164. Kind of series: Antitumor activity against human WM164 cells assessed as reduction in cell viability incubated for 72 hrs by XTT assay. It counts as functional, cell-based. To be noted: WM164, 72 h.
The subject of a further series is MUGMel2. Put plainly: Antitumor activity against human MUG-Mel2 cells assessed as reduction in cell viability incubated for 72 hrs by XTT assay. Format: functional, cell-based. To be noted: MUGMel2, 72 h.
Series [5] deals with A549. Kind of series: Antiproliferative activity against human A549 cells assessed as inhibition of cell growth incubated for 24 hrs in presence of foetal bovine serum by MTT assay. The following applies: A549, 24 h. It counts as functional, cell-based.
Series [6] is described as follows: Cytotoxicity against human HEK293T cells assessed as inhibition of cell growth incubated for 24 hrs in presence of foetal bovine serum by MTT assay. It counts as toxicity, cell-based, HEK-293T.
The test system of series [7] is HeLa. Put plainly: cells. To be noted: Homo sapiens, 24 h.
The subject of series [8] is MCF7. Put plainly: Antiproliferative activity against human MCF7 cells assessed as inhibition of cell growth incubated for 24 hrs in presence of foetal bovine serum by MTT assay. It counts as functional, cell-based. The following applies: MCF7, 24 h.
Series [9] is described as follows: Anticancer activity against human A875 cells assessed as inhibition of cell growth incubated for 24 hrs by MTT assay. It counts as functional, cell-based. To be noted: A875, 24 h.
In series [10] the test system is HepG2. Kind of series: Anticancer activity against human HepG2 cells assessed as inhibition of cell growth incubated for 24 hrs by MTT assay. It counts as functional, cell-based. The following applies: HepG2, 24 h.
Series [11] in a line: Cytotoxicity against human L02 cells assessed as inhibition of cell growth incubated for 24 hrs in presence of foetal bovine serum by MTT assay. Format: toxicity, cell-based.
In series [12] the test system is HepG2. Kind of series: Antiproliferative activity against human HepG2 cells incubated for 24 hrs by MTT assay. Format: functional, cell-based. To be noted: HepG2, 24 h.
The next series relates to B16-F10. Put plainly: Antiproliferative activity against mouse B16-F10 cells incubated for 24 hrs by MTT assay. The following applies: B16-F10, 24 h. It counts as functional, cell-based.
In a further series the test system is MDA-MB-231. Put plainly: Antiproliferative activity against human MDA-MB-231 cells incubated for 24 hrs by MTT assay. To be noted: MDA-MB-231, 24 h. Format: functional, cell-based.
Series [13] deals with MCF7. Kind of series: Antiproliferative activity against human MCF7 cells incubated for 24 hrs by MTT assay. It counts as functional, cell-based. The following applies: MCF7, 24 h.
A short description of series [14]: Cytotoxicity against African green monkey Vero cells incubated for 24 hrs by MTT assay. It counts as toxicity, cell-based, Chlorocebus sabaeus.
The test system of a further series is MG-63. Put plainly: Antiproliferative activity against human MG-63 cells incubated for 24 hrs by MTT assay. It counts as functional, cell-based. The following applies: MG-63, 24 h.
A short description of series [15]: Cytotoxicity against human MCF-10A incubated for 24 hrs by MTT assay. Format: toxicity, cell-based. The following applies: MCF-10A cells.
Series [16] in a line: Antitubulin activity against bovine brain tubulin polymerization preincubated with compound followed by GTP addition by turbidimetry-based spectrophotometric method. The arrangement: species or system Bos taurus.
A short description of series [17]: Cytotoxicity against human L02 incubated for 24 hrs by MTT assay. It counts as toxicity, cell-based. The following applies: L02 cells.
Series [18] is described as follows: Cytotoxicity against human L02 cells assessed as inhibition of cell growth incubated for 24 hrs by MTT assay. Format: toxicity, cell-based.
The subject of another series is SMMC-7721. Put plainly: Anticancer activity against human SMMC-7721 cells incubated for 48 hrs by MTT assay. It counts as functional, cell-based. To be noted: SMMC-7721, 48 h.
The test system of a further series is MGC-803. Kind of series: Anticancer activity against human MGC-803 cells incubated for 48 hrs by MTT assay. It counts as functional, cell-based. The following applies: MGC-803, 48 h.
The nature of series [19]: Cytotoxicity against human L02 cells incubated for 48 hrs by MTT assay. Format: toxicity, cell-based.
For another series, the system named is SGC-7901. Put plainly: Anticancer activity against human SGC-7901 cells incubated for 48 hrs by MTT assay. It counts as functional, cell-based. To be noted: SGC-7901, 48 h, read-out: IC50.
A further series deals with U-87 MG. Put plainly: Anticancer activity against human U87 cells incubated for 48 hrs by MTT assay. It counts as functional, cell-based, U-87MG ATCC.
Series [20] relates to A549. Put plainly: Antiproliferative activity against human A549 cells assessed as inhibition of cell proliferation incubated for 20 hrs by MTT assay. It counts as functional, cell-based. To be noted: A549, 20 h.
Series [21] is described as follows: Antiproliferative activity against human BGC cells assessed as inhibition of cell proliferation incubated for 20 hrs by MTT assay. Format: functional, cell-based.
The subject of a further series is L02. Kind of series: Antiproliferative activity against human L02 cells assessed as inhibition of cell proliferation incubated for 20 hrs by MTT assay. It counts as functional, cell-based. To be noted: L02, 20 h.
For series [22], the system named is MCF7. Put plainly: Antiproliferative activity against human MCF7 cells assessed as inhibition of cell proliferation incubated for 20 hrs by MTT assay. The following applies: MCF7, 20 h. It counts as functional, cell-based.
The subject of series [23] is HepG2. Put plainly: Antiproliferative activity against human HepG2 cells assessed as inhibition of cell proliferation incubated for 20 hrs by MTT assay. Format: functional, cell-based. To be noted: HepG2, 20 h.
Series [24] has as its system HeLa. Put plainly: Antiproliferative activity against human HeLa cells assessed as inhibition of cell proliferation incubated for 20 hrs by MTT assay. Format: functional, cell-based.
Series [25] has as its system A549. Put plainly: Anticancer activity against human A549 cells assessed as inhibition of cell growth incubated for 72 hrs by MTT assay. Format: functional, cell-based. To be noted: A549, 72 h.
Series [26] in a line: Anticancer activity against human A875 cells assessed as inhibition of cell growth incubated for 72 hrs by MTT assay. Format: functional, cell-based. To be noted: A875, 72 h.
The test system of a further series is SW872. Put plainly: Anticancer activity against human SW872 cells assessed as inhibition of cell growth incubated for 72 hrs by MTT assay. The following applies: SW872, 72 h. Format: functional, cell-based.

The source of these data is ChEMBL document CHEMBL5137008, “Recent advances of antitumor shikonin/alkannin derivatives: A comprehensive overview focusing on structural classification, synthetic approaches, and mechanisms of action” (Eur J Med Chem, 2022).

Broadly, the IC50 is the concentration that inhibits the measured activity by half.

Turning to `CC(C)=CC[C@H](O)C1=CC(=O)c2c(O)ccc(O)c2C1=O` [ALKANNIN], the IC50 in the series with K562 came out at 1500 nM; in the series with MCF7 [3], 2620 nM; with HCT-15, 1110 nM. In addition, the IC50 at 72 h in series [1] is 1500 nM. This compound also returned an IC50 at 24 h in series [2] of 1800 nM.
For `CC(C)=CC[C@@H](OC(=O)C=C(C)C)C1=CC(=O)c2c(O)ccc(O)c2C1=O` [DIMETHYLACRYLSHIKONIN], the IC50 with SBcl2 was 1100 nM; in series [4] it was 2700 nM; in the series on WM164 it was 8300 nM; in the series with MUGMel2, 7200 nM.
As for `COc1cc2c(c(OC)c1OC)-c1ccc(OC)c(=O)cc1[C@@H](NC(C)=O)CC2` [COLCHICINE], the IC50 in the series on A549 [5] was determined as 470 nM; in the series with HeLa [7], 17800 nM; in the series with MCF7 [8], 220 nM; in [9], 750 nM; in the series on HepG2 [10], 4650 nM. Moreover, the figures for the IC50 at 24 h in series [6] and in [11] were 1030 nM and 2300 nM, respectively.
With `CC(=O)O[C@@H]1[C@@H](OC(C)=O)[C@H](Sc2cc(O)c3c(c2O)C(=O)C=C([C@@H](CC=C(C)C)SC2OC[C@@H](OC(C)=O)[C@H](OC(C)=O)[C@H]2OC(C)=O)C3=O)OC[C@H]1OC(C)=O` (stereo not given in full), the IC50 in the series on HepG2 [12] amounted to 1220 nM; in the series with B16-F10, 4530 nM; in the series with MDA-MB-231, 10600 nM; in the series with MCF7 [13], 2370 nM; with MG-63, 1220 nM; in [16], 4670 nM. Besides, the figures for the IC50 at 24 h in series [14], in series [15] and in [17] were 82500 nM, 78100 nM and 132000 nM, respectively.
As to `CC(C)=CC[C@@H](OC(=O)Cc1ccc(Oc2ccccc2)cc1)C1=CC(=O)c2c(O)ccc(O)c2C1=O`, the IC50 in the series with HeLa [7] amounted to 4310 nM; in [9], 1240 nM; with HepG2 [10], 426 nM; in series [16] it was 4310 nM. Also, the IC50 at 24 h in series [18] was more than 100000 nM.
As for `CC(C)=CC[C@@H](OC(=O)CCC(=O)Nc1ccc(Oc2ccccc2)cc1)C1=CC(=O)c2c(O)ccc(O)c2C1=O`, the IC50 is 20600 nM in the series with SMMC-7721, 4100 nM in the series with MGC-803, 4100 nM in the series on SGC-7901 and 3800 nM with U-87 MG. The same compound gave a 50% inhibitory concentration (IC50) at 48 h in series [19] of more than 50000 nM.
`CC(C)=CC[C@@H](OC(=O)C(Cc1ccccc1)N1C(=O)c2ccccc2C1=O)C1=CC(=O)c2c(O)ccc(O)c2C1=O` (stereo not given in full): the IC50 was more than 100000 nM with A549 [20]; more than 100000 nM in series [21]; more than 100000 nM in the series with L02; 3050 nM in the series on MCF7 [22]; 1690 nM with HepG2 [23]; 2920 nM with HeLa [24].
In the case of `CC(C)=CC[C@@H](OC(=O)/C=C/c1cccc(C(F)(F)F)c1)C1=CC(=O)c2c(O)ccc(O)c2C1=O`, the 50% inhibitory concentration (IC50) came to 1620 nM in the series on A549 [25], 650 nM in series [26] and 690 nM in the series on SW872.
Turning to `CC(C)=CC[C@@H](OC(=O)[C@@H](Cc1ccccc1)N1C(=O)C2C3C=CC(C3)C2C1=O)C1=CC(=O)c2c(O)ccc(O)c2C1=O` (stereo not given in full), the IC50 was more than 100000 nM in the series on A549 [20]; 11600 nM in series [21]; more than 100000 nM with L02; 3550 nM in the series on MCF7 [22]; 1920 nM with HepG2 [23]; 1260 nM with HeLa [24].
